# Target: catD / beta-secretase (BACE)
# Assay: CatD/BACE selectivity (ratio of IC50 values)
# Type: biochemical
# Settings: each value is an average of four experimental runs; multiple values = more than one experiment
# Protocol: Selectivity was calculated as a ratio of inhibition (IC50) values in which the inhibition of beta-secretase was compared to the inhibition of other aspartyl proteases.
# In the following examples, each value is an average of four experimental runs and multiple values for one compound indicate that more than one experiment was conducted.
row,Structure (SMILES),IC50 catD/IC50 BACE
1,"CC(=O)NC(Cc1cc(F)cc(F)c1)C(O)CNC1(c2cccc(C(C)C)c2)CCC2(CC1)OCCO2 (centres unmarked) [Example 196A-6, N-{1-(3,5-Difluoro-benzyl)-2-hydroxy-3-[8-(3-isopropyl-phenyl)-1,4-dioxa-spiro[4.5]dec-8-ylamino]-propyl}-acetamide]",11.4
2,"CONC1CCC(NCC(O)C(Cc2cc(F)cc(F)c2)NC(C)=O)(c2cccc(C(C)(C)C)c2)CC1 (single isomer, unassigned) [196A-21 Diastereomer B, N-(4-(1-(3-tert-butylphenyl)-4-(methoxyamino)cyclohexylamino)-1-(3,5-difluorophenyl)-3-hydroxybutan-2-yl)acetamide]",12.3
3,"CC(=O)NC(Cc1cc(F)cc(F)c1)C(O)CNC1(c2cccc(C(C)(C)C)c2)CCC(NS(C)(=O)=O)CC1 (single isomer, unassigned) [196A-42 Diastereomer B, N-(4-(1-(3-tert-butylphenyl)-4-(methylsulfonamido)cyclohexylamino)-1-(3,5-difluorophenyl)-3-hydroxybutan-2-yl)acetamide]",>3.0
4,"CC(=O)NC(Cc1cc(F)cc(F)c1)C(O)CNC1(c2cccc(Br)c2)CCC2(CC1)OCCO2 (centres unmarked) [Example 196A-47, N-[3-[8-(3-Bromo-phenyl)-1,4-dioxa-spiro[4.5]dec-8-ylamino]-1-(3,5-difluoro-benzyl)-2-hydroxy-propyl]-acetamide]",1.7
5,"CNC(=O)NC1CCC(NCC(O)C(Cc2cc(F)cc(F)c2)NC(C)=O)(c2cccc(C(C)(C)C)c2)CC1 (single isomer, unassigned) [196A-46 Diastereomer B, 1-(4-(3-acetamido-4-(3,5-difluorophenyl)-2-hydroxybutylamino)-4-(3-tert-butylphenyl)cyclohexyl)-3-methylurea]",>1.3
6,"CC(=O)NC(Cc1cc(F)cc(F)c1)C(O)CNC1(c2cccc(C(C)C)c2)CCN(C(=O)C(F)(F)F)CC1 (centres unmarked) [Example 196A-12, N-{1-(3,5-Difluoro-benzyl)-2-hydroxy-3-[4-(3-isopropyl-phenyl)-1-(2,2,2-trifluoro-acetyl)-piperidin-4-ylamino]-propyl}-acetamide]",1.1
7,"CC(=O)NC(Cc1cc(F)cc(F)c1)C(O)CNC1(c2cccc(C(C)(C)C)c2)CCC(C#N)CC1 (centres unmarked) [Example 196A-48, N-[3-[1-(3-tert-Butyl-phenyl)-4-cyano-cyclohexylamino]-1-(3,5-difluoro-benzyl)-2-hydroxy-propyl]-acetamide]",1.7
8,"CONC1CCC(NCC(O)C(Cc2cc(F)cc(F)c2)NC(C)=O)(c2cccc(C(C)(C)C)c2)CC1 (single isomer, unassigned) [196A-20 Diastereomer A, N-(4-(1-(3-tert-butylphenyl)-4-(methoxyamino)cyclohexylamino)-1-(3,5-difluorophenyl)-3-hydroxybutan-2-yl)acetamide]",5.0
9,"CC(=O)NC(Cc1cc(F)cc(F)c1)C(O)CNC1(c2cccc(C(C)(C)C)c2)CCC(N)CC1 (single isomer, unassigned) [196A-29 Diastereomer A, N-(4-(1-(3-tert-butylphenyl)-4-aminocyclohexylamino)-1-(3,5-difluorophenyl)-3-hydroxybutan-2-yl)acetamide]",>8.4
10,"CC(=O)NC(Cc1cc(F)cc(F)c1)C(O)CNC1(c2cccc(C(C)C)c2)CCS(=O)(=O)CC1 (centres unmarked) [Example 196A-9, N-{1-(3,5-Difluoro-benzyl)-2-hydroxy-3-[4-(3-isopropyl-phenyl)-1,1-dioxo-hexahydro-1l6-thiopyran-4-ylamino]-propyl}-acetamide]",1.4
11,"CC(=O)NC1CCC(NCC(O)C(Cc2cc(F)cc(F)c2)NC(C)=O)(c2cccc(C(C)(C)C)c2)CC1 (single isomer, unassigned) [196A-33 Diastereomer A, N-[3-[4-Acetylamino-1-(3-tert-butyl-phenyl)-cyclohexylamino]-1-(3,5-difluoro-benzyl)-2-hydroxy-propyl]-acetamide]",34.4

# Source: patent publication US20060014790A1, “Methods of treatment of amyloidosis using spirocyclohexane aspartyl-protease inhibitors” (priority 2004, published 2006)
